Source: paper PMC11949107, “Polyunsaturated fatty acids and their endocannabinoid-related metabolites activity at human TRPV1 and TRPA1 ion channels expressed in HEK-293 cells” (PeerJ, 2025)
Several values for one entry are separate records, joined by “and”; a condition that tells them apart may be missing. Equal entries are not always repeated.

Legend:
[1] = biological target: T1, human TRPV1 (Homo sapiens, UniProt Q8NER1); test: Pre-incubation with PUFAs or capsazepine, then capsaicin (10 nM) response in HEK-293 TRPV1 cells; type: cell-based
T1 construct: Life Technologies (cells); host or cells: Flp-In T-REx HEK-293
T1 sequence (Q8NER1 whole entry): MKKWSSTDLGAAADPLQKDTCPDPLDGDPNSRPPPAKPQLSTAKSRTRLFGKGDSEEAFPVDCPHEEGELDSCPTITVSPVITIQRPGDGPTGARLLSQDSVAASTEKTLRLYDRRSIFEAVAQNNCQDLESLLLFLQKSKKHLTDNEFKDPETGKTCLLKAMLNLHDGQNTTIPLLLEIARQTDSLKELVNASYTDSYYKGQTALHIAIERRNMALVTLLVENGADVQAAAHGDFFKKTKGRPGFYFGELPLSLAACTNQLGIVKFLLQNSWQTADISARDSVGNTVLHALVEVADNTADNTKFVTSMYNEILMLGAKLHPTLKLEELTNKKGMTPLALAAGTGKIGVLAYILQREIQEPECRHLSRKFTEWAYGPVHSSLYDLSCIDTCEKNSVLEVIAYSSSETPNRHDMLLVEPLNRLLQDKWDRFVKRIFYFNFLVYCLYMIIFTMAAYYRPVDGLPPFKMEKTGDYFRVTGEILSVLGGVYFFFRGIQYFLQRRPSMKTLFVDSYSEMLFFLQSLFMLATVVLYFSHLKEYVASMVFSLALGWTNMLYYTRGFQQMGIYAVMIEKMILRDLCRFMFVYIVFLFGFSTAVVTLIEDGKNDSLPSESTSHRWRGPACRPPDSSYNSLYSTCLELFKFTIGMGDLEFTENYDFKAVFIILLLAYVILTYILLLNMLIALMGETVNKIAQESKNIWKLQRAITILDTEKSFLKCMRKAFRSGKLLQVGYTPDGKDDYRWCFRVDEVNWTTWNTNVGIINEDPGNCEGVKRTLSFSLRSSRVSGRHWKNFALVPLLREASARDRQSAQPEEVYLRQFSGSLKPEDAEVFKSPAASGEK
Procedure: Intracellular calcium [Ca]i levels were assessed using the calcium 5 kit from Molecular Devices (# R8186, Sunnyvale, CA, USA) on a FlexStation 3 Microplate Reader (Molecular Devices, Sunnyvale, CA, USA). […] Probenecid (cat # 50027; Biotium) which helps to prevent expulsion of calcium indicator from the cells was added to a final concentration of 1.25 mM. 90 µL of the dye were loaded into each well of the plate and incubated for 1 h before reading in the FlexStation 3 at 37 °C. Fluorescence was recorded every 2 s (λ excitation = 485 nm, λ emission = 525 nm) for 5 min. After 1 min of baseline recording, 20 µL of the drug, dissolved in HBSS with 1% dimethyl sulfoxide (DMSO) (cat # D2650; Sigma-Aldrich, Melbourne, Australia) was added (final DMSO concentration was 0.1% in well). […]

[2] = tested on: HEK-293 EV cells; test: Calcium 5 dye [Ca]i assay in HEK-293 empty vector (EV) cells; type: cell-based, human; conditions: 10 µM; HEK-293 EV cells; percentage of predrug baseline
In short: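 Tetracycline at 1 µg ml^−1 was added 4 h before testing; cells were loaded with Calcium 5 dye for 1 h and read at 37 °C, with drug added after 1 min baseline (final 0.1% DMSO). The response was the % change from the 60 s baseline after solvent subtraction, and EC50/Emax came from a three-parameter logistic fit, reported as pEC50.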

[3] = biological target: T2, human TRPA1 (Homo sapiens, UniProt O75762); test: Calcium 5 dye [Ca]i assay in HEK-293 Flp-In T-REx cells expressing TRPA1 (agonist response); type: cell-based; conditions: for [Ca]i response (change in fluorescence), individual replicates: sheet Figure 4
T2 construct: Life Technologies (cells); host or cells: Flp-In T-REx HEK-293
T2 sequence (O75762 whole entry): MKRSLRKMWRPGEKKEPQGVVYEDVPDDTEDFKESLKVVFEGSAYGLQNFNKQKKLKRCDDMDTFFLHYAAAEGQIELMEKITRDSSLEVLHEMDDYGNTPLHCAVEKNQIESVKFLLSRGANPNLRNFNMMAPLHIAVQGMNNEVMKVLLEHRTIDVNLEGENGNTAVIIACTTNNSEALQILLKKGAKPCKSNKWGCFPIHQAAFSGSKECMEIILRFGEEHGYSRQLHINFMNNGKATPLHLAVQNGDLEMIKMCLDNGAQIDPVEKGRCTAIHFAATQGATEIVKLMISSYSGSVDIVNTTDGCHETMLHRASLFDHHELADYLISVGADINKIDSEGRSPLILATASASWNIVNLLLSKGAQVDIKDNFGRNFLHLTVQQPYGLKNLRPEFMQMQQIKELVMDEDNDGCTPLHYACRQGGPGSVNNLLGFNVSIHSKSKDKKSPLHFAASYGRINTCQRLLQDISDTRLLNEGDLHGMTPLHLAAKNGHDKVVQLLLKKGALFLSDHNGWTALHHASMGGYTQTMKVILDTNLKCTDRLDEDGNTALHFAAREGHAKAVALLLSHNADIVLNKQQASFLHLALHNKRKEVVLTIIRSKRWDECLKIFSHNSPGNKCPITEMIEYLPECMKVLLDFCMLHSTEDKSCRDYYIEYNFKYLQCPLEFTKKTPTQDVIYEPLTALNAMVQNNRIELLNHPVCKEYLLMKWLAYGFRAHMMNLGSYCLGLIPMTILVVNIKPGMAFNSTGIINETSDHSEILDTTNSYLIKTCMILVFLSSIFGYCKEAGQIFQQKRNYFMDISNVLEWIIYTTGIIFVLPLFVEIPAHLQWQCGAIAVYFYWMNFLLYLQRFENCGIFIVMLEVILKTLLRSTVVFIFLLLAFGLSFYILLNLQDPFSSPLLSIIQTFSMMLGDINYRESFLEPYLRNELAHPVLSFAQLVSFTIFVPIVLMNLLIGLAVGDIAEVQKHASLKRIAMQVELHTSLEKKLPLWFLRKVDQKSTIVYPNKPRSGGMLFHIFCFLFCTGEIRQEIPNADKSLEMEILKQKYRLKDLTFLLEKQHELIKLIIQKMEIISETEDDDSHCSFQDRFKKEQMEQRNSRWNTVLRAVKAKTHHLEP
In short: (§1)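 Tetracycline-induced (1 µg ml^−1, 4 h) HEK-293 T-REx cells loaded with Calcium 5 dye plus 1.25 mM probenecid for 1 h; agonist added after 1 min baseline (0.1% DMSO final), fluorescence (485/525 nm) read every 2 s for 5 min at 37 °C. Response as % change from baseline, solvent-subtracted; EC50/Emax from three-parameter logistic fit, given as pEC50.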

[4] = biological target: T1, human TRPV1; test: Calcium 5 dye [Ca]i assay in HEK-293 Flp-In T-REx cells expressing TRPV1 (agonist response); type: cell-based; conditions: for Change in Ca5 fluorescence, individual experiments (CRC raw data): TRPV1 cells
In short: as §1

[5] = biological target: T1, human TRPV1; test: PMA (phorbol ester) potentiation of TRPV1 responses in HEK-293 TRPV1 cells; type: cell-based; parameters: key to Drugs alone, individual experiments: change in [Ca]i as % of pre-drug baseline

SMILES: CC/C=C\C/C=C\C/C=C\C/C=C\C/C=C\CCCC(=O)O [EPA, eicosapentaenoic acid]
- Effect of pre-treatment on the capsaicin response ([1]; 10 µM, 5 min exposure, then capsaicin 10 nM): did not affect
- Post-capsaicin: response to subsequent capsaicin addition, individual experiments ([1]; capsaicin 10 nM after 5 min drug 10 µM, TRPV1 cells): 203.333 and 227.843 and 146.783 and 264.915 and 237.782 and 308.835
- Pre-capsaicin: response to first drug, individual experiments ([1]; drug 10 µM for 5 min, TRPV1 cells): 16.1107 and 14.1511 and 10.793 and 4.456 and 14.6833 and 13.0981
- Change of Ca5 fluorescence, Mean ± SEM, EV (10 µM) [2]: 14 ± 5%
- Elevation of [Ca]i in HEK-293 TRPA1 cells compared with HEK-293 EV cells ([3]; 10 µM (cinnamaldehyde 300 µM)): did not produce a change
- Change of Ca5 fluorescence, Mean ± SEM, TRPA1 (10 µM) ([3]; 10 µM, HEK-293 TRPA1 cells, percentage of predrug baseline): 58 ± 42%
- TRPA1 activation at the highest concentration tested ([3]; 30 µM): activated TRPA1
- Emax at 30 µM ([3]; HEK293, read-out: Emax ± SEM % TRPA1 (30 µM), highest tested concentration (30 µM) or derived from concentration-response curves (cinnamaldehyde)): 232 ± 67%
- [Ca]i response (change in fluorescence), individual replicates ([3]; concentration -4.52288 (log)): 377.608 and 117.826 and 193.269 and 60.6586 and 155.376 and 486.394
- [Ca]i response (change in fluorescence), individual replicates ([3]; concentration -5 (log)): 17.4998 and 14.5924 and 9.889 and 12.76 and 22.7093 and 269.088
- [Ca]i response (change in fluorescence), individual replicates ([3]; concentration -5.52288 (log)): 2.522 and 3.13 and 3.703 and 4.731
- [Ca]i response (change in fluorescence), individual replicates ([3]; concentration -6 (log)): 1.85 and 3.994 and 3.577 and 9.657 and 3.961 and 6.207
- [Ca]i response (change in fluorescence), individual replicates ([3]; concentration -6.52288 (log)): 1.392 and 2.613 and 2.728 and 11.1533
- [Ca]i response (change in fluorescence), individual replicates ([3]; concentration -7 (log)): 0.08029 and 3.966 and 3.106 and 5.407
- Elevation of [Ca]i in HEK-293 TRPV1 cells compared with HEK-293 EV cells ([4]; 10 µM): did not produce a notable change
- Change of Ca5 fluorescence, Mean ± SEM, TRPV1 (10 µM) ([4]; 10 µM, HEK-293 TRPV1 cells, percentage of predrug baseline): 16 ± 5%
- Emax at 30 µM ([4]; HEK293, read-out: Emax ± SEM % TRPV1 (30 µM)): 34 ± 5%
- Change in Ca5 fluorescence, individual experiments (CRC raw data) ([4]; log concentration -4.52288 (M)): 41.79 and 35.9904 and 24.921 and 28.9142 and 55.0634 and 19.9806
- Change in Ca5 fluorescence, individual experiments (CRC raw data) ([4]; log concentration -5 (M)): 41.213 and 9.61 and 11.6653 and 7.673 and 15.0259 and 7.993
- Change in Ca5 fluorescence, individual experiments (CRC raw data) ([4]; log concentration -5.52288 (M)): 10.434 and 4.673 and 8.042 and 0.3072
- Change in Ca5 fluorescence, individual experiments (CRC raw data) ([4]; log concentration -6 (M)): 6.783 and 4.449 and 9.084 and 5.542 and 3.583 and -0.1759
- Change in Ca5 fluorescence, individual experiments (CRC raw data) ([4]; log concentration -6.52288 (M)): 4.775 and 5.179 and 8.63 and 0.2635
- Change in Ca5 fluorescence, individual experiments (CRC raw data) ([4]; log concentration -7 (M)): 4.257 and 3.906 and 5.164 and 0.2974
- TRPV1 response after exposure to PMA ([5]; PMA 100 nM, 5 min pretreatment): only observed when a phorbol ester was present
- Drugs post-PMA, individual experiments ([5]; PUFA 10 µM after PMA 100 nM for 5 min, response to PMA alone subtracted): 49.2015 and 39.5321 and 37.0404 and 36.9714 and 31.5302 and 32.9212
- Drugs alone, individual experiments ([5]; PUFA 10 µM without PMA pretreatment, TRPV1 cells): 7.525 and 11.4184 and 9.766 and 10.5311 and 6.999 and 3.475 and 2.716 and 6.787 and 18.8884
